Measured values taken from ChEMBL document CHEMBL1123796, “New antitumor agents containing the anthracene nucleus” (1987).

What was measured:
Type in all cases: functional
RPMI-8226 [1] = assay: Effect on RNA synthesis was determined by incorporation of radioligand into 8226 human myeloma cells at a concentration of 10 ug/mL (*: >1 log cell kill)
Mus musculus [2] = assay: Tested for percent average weekly weight change in mice at a significant dose of 45 mg/kg administered intraperitoneally after 5 days of treatment; conditions: route intraperitoneal
Mus musculus [3] = assay: Tested for percent average weekly weight change in mice at a significant dose of 80 mg/kg administered intraperitoneally; conditions: route intraperitoneal
Mus musculus [4] = assay: Tested for skin toxicity in BALB/c mice at a significant dose of 0.75 mg/kg administered intraintradermally and involved concentric circular areas of induration.
P388 [5] = assay: Antileukemic activity against P-388 in mice at a dose of 70 mg/kg administered intraperitoneally after 1 day treatment; conditions: Mus musculus, P388, ip, 24 h, route intraperitoneal
L1210 [6] = assay: Effect on RNA synthesis was determined by incorporation of radioligand into L1210 murine leukemia at a concentration of 10 ug/mL (*: >1 log cell kill); conditions: Mus musculus
RPMI-8226 [7] = assay: Effect on protein synthesis was determined by incorporation of radioligand into 8226 human myeloma cells at a concentration of 0.01 ug/mL
L1210 [8] = assay: Effect on DNA synthesis was determined by incorporation of radioligand into L1210 murine leukemia at a concentration of 0.3 ug/mL (*: >50% cell kill); conditions: Mus musculus
L1210 [9] = assay: Effect on protein synthesis was determined by incorporation of radioligand into L1210 murine leukemia at a concentration of 0.5 ug/mL. (*: >1 log cell kill); conditions: Mus musculus
P388 [10] = assay: Antileukemic activity against P-388 in mice at a dose of 60 mg/kg administered intraperitoneally after 5 day treatment; conditions: Mus musculus, P388, ip, 120 h, route intraperitoneal
Mus musculus [11] = assay: Tested for high-dose toxicity in mice at a significant dose of 100 mg/kg administered intraperitoneally after 1 days of treatment; conditions: route intraperitoneal
Mus musculus [12] = assay: Tested for skin toxicity in BALB/c mice at a significant dose of 0.75 mg/kg administered intraintradermally and involved concentric circular areas of erythema
Mus musculus [13] = assay: Tested for skin toxicity in BALB/c mice at a significant dose of 1.25 mg/kg administered intraintradermally and involved concentric circular areas of induration.
[14] = In vitro inhibition of human UACC-66 ovarian tumor cell line growth.; conditions: read-out: ID50 (the source's name)
RPMI-8226 [15] = assay: Effect on DNA synthesis was determined by incorporation of radioligand into 8226 human myeloma cells at a concentration of 1 ug/mL. (*: >1 log cell kill)
Mus musculus [16] = assay: Tested for skin toxicity in BALB/c mice administered intraintradermally and involved concentric circular areas of ulceration
L1210 [17] = assay: Effect on DNA synthesis was determined by incorporation of radioligand into L1210 murine leukemia at a concentration of 1 ug/mL. (*: >1 log cell kill); conditions: Mus musculus
L1210 [18] = assay: Antileukemic activity against L-1210 cells in mice at a dose of 30 mg/kg administered intraperitoneally after 5 day treatment; conditions: Mus musculus, L1210, ip, 120 h, route intraperitoneal
Mus musculus [19] = assay: Tested for skin toxicity in BALB/c mice at a significant dose of 2.5 mg/kg administered intraintradermally and involved concentric circular areas of erythema
Mus musculus [20] = assay: Tested for high-dose toxicity in mice at a significant dose of 90 mg/kg administered intraperitoneally after 1 days of treatment; conditions: route intraperitoneal
Mus musculus [21] = assay: Tested for percent average weekly weight change in mice at a significant dose of 90 mg/kg administered intraperitoneally after 1 days of treatment; conditions: route intraperitoneal
L1210 [22] = assay: Antileukemic activity against L-1210 cells in mice at a dose of 60 mg/kg administered intraperitoneally after 1 day treatment; conditions: Mus musculus, L1210, ip, 24 h, route intraperitoneal
L1210 [23] = assay: Antileukemic activity against L-1210 cells in mice at a dose of 90 mg/kg administered intraperitoneally after 1 day treatment; conditions: Mus musculus, L1210, ip, 24 h, route intraperitoneal
RPMI-8226 [24] = assay: Effect on protein synthesis was determined by incorporation of radioligand into 8226 human myeloma cells at a concentration of 0.5 ug/mL. (*: >1 log cell kill)
L1210 [25] = assay: Effect on DNA synthesis was determined by incorporation of radioligand into L1210 murine leukemia at a concentration of 0.5 ug/mL. (*: >1 log cell kill); conditions: Mus musculus
L1210 [26] = assay: Effect on RNA synthesis was determined by incorporation of radioligand into L1210 murine leukemia at a concentration of 0.01 ug/mL; conditions: Mus musculus
RPMI-8226 [27] = assay: Effect on RNA synthesis was determined by incorporation of radioligand into 8226 human myeloma cells at a concentration of 0.3 ug/mL (*: >50% cell kill)
Mus musculus [28] = assay: Tested for skin toxicity in BALB/c mice at a significant dose of 1.25 mg/kg administered intraintradermally and involved concentric circular areas of erythema
L1210 [29] = assay: Effect on RNA synthesis was determined by incorporation of radioligand into L1210 murine leukemia at a concentration of 0.3 ug/mL (*: >50% cell kill); conditions: Mus musculus
L1210 [30] = assay: Antileukemic activity against L-1210 cells in mice at a dose of 80 mg/kg administered intraperitoneally after 5 day treatment; conditions: Mus musculus, L1210, ip, 120 h, route intraperitoneal
L1210 [31] = assay: Antileukemic activity against L-1210 cells in mice at a dose of 60 mg/kg administered intraperitoneally after 5 day treatment; conditions: Mus musculus, L1210, ip, 120 h, route intraperitoneal
P388 [32] = assay: Antileukemic activity against P-388 in mice at a dose of 37.5 mg/kg administered intraperitoneally after 5 day treatment; conditions: Mus musculus, P388, ip, 120 h, route intraperitoneal
L1210 [33] = assay: Antileukemic activity against L-1210 cells in mice at a dose of 70 mg/kg administered intraperitoneally after 1 day treatment; conditions: Mus musculus, L1210, ip, 24 h, route intraperitoneal
L1210 [34] = assay: Effect on protein synthesis was determined by incorporation of radioligand into L1210 murine leukemia at a concentration of 1 ug/mL. (*: >1 log cell kill); conditions: Mus musculus
P388 [35] = assay: Antileukemic activity against P-388 in mice at a dose of 90 mg/kg administered intraperitoneally after 1 day treatment; conditions: Mus musculus, P388, ip, 24 h, route intraperitoneal
P388 [36] = assay: Antileukemic activity against P-388 in mice at a dose of 100 mg/kg administered intraperitoneally after 1 day treatment; conditions: Mus musculus, P388, ip, 24 h, route intraperitoneal
Mus musculus [37] = assay: Tested for skin toxicity in BALB/c mice at a significant dose of 0.25 mg/kg administered intraintradermally and involved concentric circular areas of erythema
P388 [38] = assay: Antileukemic activity against P-388 in mice at a dose of 80 mg/kg administered intraperitoneally after 1 day treatment; conditions: Mus musculus, P388, ip, 24 h, route intraperitoneal
RPMI-8226 [39] = assay: Effect on RNA synthesis was determined by incorporation of radioligand into 8226 human myeloma cells at a concentration of 1 ug/mL. (*: >1 log cell kill)
L1210 [40] = assay: Antileukemic activity against L-1210 cells in mice at a dose of 80 mg/kg administered intraperitoneally after 1 day treatment; conditions: Mus musculus, L1210, ip, 24 h, route intraperitoneal
P388 [41] = assay: Antileukemic activity against P-388 in mice at a dose of 60 mg/kg administered intraperitoneally after 1 day treatment; conditions: Mus musculus, P388, ip, 24 h, route intraperitoneal

Q: With `CN(C)CCNCc1c2ccccc2c(CNCCN(C)C)c2ccccc12` as the compound, how does the inhibition at 10 µg/mL (RPMI-8226 [1]) read?
A: 91.4%

Q: What about the “Average weekly weight change” value (Mus musculus [2]) of the same compound?
A: -12%

Q: And the Lethality (Mus musculus [3])?
A: -3%

Q: And the “Extent of skin lesions” value (Mus musculus [4])?
A: 1.7 cm**2

Q: And the ILS at 70 mg/kg (P388 [5])?
A: 27%

Q: What about the inhibition at 10 µg/mL (L1210 [6]) of the same compound?
A: 96.3%

Q: What about the inhibition at 0.01 µg/mL (RPMI-8226 [7]) of the same compound?
A: 67.5%

Q: What about the inhibition at 0.3 µg/mL (L1210 [8]) of the same compound?
A: 0%

Q: And the inhibition at 0.5 µg/mL (L1210 [9])?
A: 21.8%

Q: And the ILS at 60 mg/kg (P388 [10])?
A: 25%

Q: What about the Lethality (Mus musculus [11]) of the same compound?
A: 60%

Q: What about the “Median day of death” value (Mus musculus [11]) of the same compound?
A: 0

Q: And the “Extent of skin lesions” value (Mus musculus [12])?
A: 1.3 cm**2

Q: What about the “Extent of skin lesions” value (Mus musculus [13]) of the same compound?
A: 4.3 cm**2

Q: And the IC50 [14]?
A: 1600 nM

Q: And the inhibition at 1 µg/mL (RPMI-8226 [15])?
A: 21.1%

Q: And the “Extent of skin lesions” value (Mus musculus [16])?
A: 1.9 cm**2

Q: And the inhibition at 1 µg/mL (L1210 [17])?
A: 48.7%

Q: What about the ILS at 30 mg/kg (L1210 [18]) of the same compound?
A: 5%

Q: And the “Extent of skin lesions” value (Mus musculus [19])?
A: 5 cm**2

Q: What about the Lethality (Mus musculus [20]) of the same compound?
A: 20%

Q: What about the “Median day of death” value (Mus musculus [20]) of the same compound?
A: 10

Q: And the “Average weekly weight change” value (Mus musculus [21])?
A: -5%

Q: And the ILS at 60 mg/kg (L1210 [22])?
A: 17%

Q: What about the ILS at 90 mg/kg (L1210 [23]) of the same compound?
A: 3%

Q: And the inhibition at 0.5 µg/mL (RPMI-8226 [24])?
A: 63.5%

Q: And the inhibition at 0.5 µg/mL (L1210 [25])?
A: 5.8%

Q: What about the inhibition at 0.01 µg/mL (L1210 [26]) of the same compound?
A: 0%

Q: What about the inhibition at 0.3 µg/mL (RPMI-8226 [27]) of the same compound?
A: 0%

Q: What about the “Extent of skin lesions” value (Mus musculus [28]) of the same compound?
A: 2.2 cm**2

Q: What about the inhibition at 0.3 µg/mL (L1210 [29]) of the same compound?
A: 0%

Q: What about the ILS at 80 mg/kg (L1210 [30]) of the same compound?
A: 15%

Q: What about the ILS at 60 mg/kg (L1210 [31]) of the same compound?
A: 27%

Q: What about the ILS at 37.5 mg/kg (P388 [32]) of the same compound?
A: 0%

Q: And the ILS at 70 mg/kg (L1210 [33])?
A: 40%

Q: And the inhibition at 1 µg/mL (L1210 [34])?
A: 31.2%

Q: And the ILS at 90 mg/kg (P388 [35])?
A: -10%

Q: What about the ILS at 100 mg/kg (P388 [36]) of the same compound?
A: -33%

Q: And the “Extent of skin lesions” value (Mus musculus [37])?
A: 0.3 cm**2

Q: What about the ILS at 80 mg/kg (P388 [38]) of the same compound?
A: 36%

Q: What about the inhibition at 1 µg/mL (RPMI-8226 [39]) of the same compound?
A: 70.4%

Q: What about the ILS at 80 mg/kg (L1210 [40]) of the same compound?
A: 14%

Q: And the ILS at 60 mg/kg (P388 [41])?
A: 11%
